Measured values from the supplement of paper PMC11061612.

Assays:
Assay in all cases: combination Emax (second highest fraction inhibited in the dose matrix, 72 h); higher = more inhibition; extreme values may be limits of the assay
[1] = test system: KARPAS-231 (B-Cell Non-Hodgkin's Lymphoma)
Summary of the method: (§1)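 After 24 hours at 37°C and 5% CO2 in 1536-well plates, cells in DMEM/F12 or RPMI plus 10% FBS received two-drug dose matrices for 72 hours. Viability came from CellTiter-Glo 2.0 luminescence and was scaled as inhibition, anchored at 0 by vehicle wells and at 1 by blank wells. Combination Emax is taken as the second-highest inhibition in the matrix, and Bliss excess as the observed combination effect less EA + EB − EA·EB, with EA and EB the single-agent effects.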

[2] = test system: Mewo (Melanoma)
Summary of the method: as §1

[3] = test system: COLO-829 (Melanoma)
Summary of the method: as §1

[4] = test system: 8305C (Thyroid Gland Carcinoma)
Summary of the method: as §1

[5] = test system: LU-139 (Small Cell Lung Carcinoma)
Summary of the method: as §1

[6] = test system: NCI-H747 (Colorectal Carcinoma)
Summary of the method: as §1

[7] = test system: SU-DHL-6 (B-Cell Non-Hodgkin's Lymphoma)
Summary of the method: as §1

[8] = test system: CTB-1 (B-Cell Non-Hodgkin's Lymphoma)
Summary of the method: as §1

[9] = test system: RPMI-6666 (Non-Cancerous)
Summary of the method: as §1

[10] = test system: UMC-11 (Other Solid Carcinomas)
Summary of the method: as §1

[11] = test system: PCI-30 (Head and Neck Carcinoma)
Summary of the method: as §1

[12] = test system: Hs-633T (Other Solid Carcinomas)
Summary of the method: as §1

[13] = test system: 639-V (Bladder Carcinoma)
Summary of the method: as §1

[14] = test system: CAL-54 (Kidney Carcinoma)
Summary of the method: as §1

[15] = test system: RT-112 (Bladder Carcinoma)
Summary of the method: as §1

[16] = test system: SW1116 (Colorectal Carcinoma)
Summary of the method: as §1

[17] = test system: TE-4 (Esophageal Squamous Cell Carcinoma)
Summary of the method: as §1

[18] = test system: NCI-H2461 (Mesothelioma)
Summary of the method: as §1

[19] = test system: CAL-51 (Breast Carcinoma)
Summary of the method: as §1

[20] = test system: HMV-II (Melanoma)
Summary of the method: as §1

SMILES | combination Emax [1] | combination Emax [2] | combination Emax [3] | combination Emax [4] | combination Emax [5] | combination Emax [6] | combination Emax [7] | combination Emax [8] | combination Emax [9] | combination Emax [10] | combination Emax [11] | combination Emax [12] | combination Emax [13] | combination Emax [14] | combination Emax [15] | combination Emax [16] | combination Emax [17] | combination Emax [18] | combination Emax [19] | combination Emax [20]
CCc1c2c(nc3ccc(O)cc13)-c1cc3c(c(=O)n1C2)COC(=O)[C@]3(O)CC [SN-38] + O=C(c1cc(Cc2n[nH]c(=O)c3ccccc23)ccc1F)N1CCN(C(=O)C2CC2)CC1 [Olaparib] (first compound max 0.3 µM, 7x7, partner max 10 µM) | 1 | 0.338 | 0.662 | 0.627 | 0.767 | 0.542 | 1 | 0.837 | 0.998 | 0.24 | 0.727 | 0.842 | 1 | 0.788 | 0.762 | 0.214 | 0.402 | 0.639 | 0.801 | 0.641
CN(CCO)CC[C@H](CSc1ccccc1)Nc1ccc(S(=O)(=O)NC(=O)c2ccc(N3CCC([C@@H](O)c4ccccc4-c4ccc(Cl)cc4)CC3)cc2)cc1S(=O)(=O)C(F)(F)F [AZD4320] + C=CCn1c(=O)c2cnc(Nc3ccc(N4CCN(C)CC4)cc3)nc2n1-c1cccc(C(C)(C)O)n1 [AZD1775] (first compound max 1 µM, partner max 1 µM) | 1 | 0.548 | 0.265 | 0.7 | 0.927 | 0.446 | 1 | 0.862 | 1 | 0.632 | 0.323 | 0.856 | 0.377 | 0.827 | 0.744 | 0.264 | 0.466 | 0.782 | 0.907 | 0.47
COc1cc2c(cc1OCCCCCOc1cc3c(cc1OC)C(=O)N1C=C(C)C[C@H]1C=N3)N=C[C@@H]1CC(C)=CN1C2=O [SG3199] + O=C(c1cc(Cc2n[nH]c(=O)c3ccccc23)ccc1F)N1CCN(C(=O)C2CC2)CC1 [Olaparib] (first compound max 0.001 µM, 7x7, partner max 10 µM) | 0.262 | 0.106 | 0.129 | 0.141 | 0.174 | 0.0668 | 0.171 | 0.28 | 0.501 | 0.168 | 0.105 | 0.142 | 0.201 | 0.121 | 0.1 | 0.0344 | 0.233 | 0.11 | 0.202 | 0.118
COc1cccc(OCCCN)c1-c1cc(Nc2cnc(C#N)cn2)n[nH]1 [Prexasertib] + CCc1c2c(nc3ccc(O)cc13)-c1cc3c(c(=O)n1C2)COC(=O)[C@]3(O)CC [SN-38] (first compound max 1 µM, 7x7, partner max 0.3 µM) | 1 | 0.721 | 0.662 | 0.823 | 0.899 | 0.724 | 0.991 | 0.934 | 0.976 | 0.959 | 0.966 | 0.814 | 1 | 0.855 | 1 | 0.763 | 0.881 | 0.705 | 0.901 | 0.669
CCN(CCO)CCCOc1ccc2c(Nc3cc(CC(=O)Nc4cccc(F)c4)[nH]n3)ncnc2c1 [AZD2811] + O=C(c1cc(Cc2n[nH]c(=O)c3ccccc23)ccc1F)N1CCN(C(=O)C2CC2)CC1 [Olaparib] (first compound max 1 µM, 7x7, partner max 10 µM) | 0.576 | 0.226 | 0.254 | 0.169 | 0.307 | 0.232 | 0.365 | 0.515 | 0.625 | 0.75 | 0.265 | 0.441 | 0.237 | 0.223 | 0.424 | 0.223 | 0.145 | 0.278 | 0.314 | 0.203
CN(C)CCCOc1ccc(-c2ccc3ncc4c(c3c2)n(C2CCOCC2)c(=O)n4C)cn1 [AZD0156] + C[C@@H]1COCCN1C2=NC(=NC(=C2)C3(CC3)[S@](=N)(=O)C)C4=C5C=CNC5=NC=C4 [AZD6738] (first compound max 1 µM, 7x7, partner max 10 µM) | 0.904 | 0.594 | 0.159 | 0.506 | 0.278 | 0.266 | 0.629 | 0.829 | 0.861 | 0.642 | 0.659 | 0.925 | 0.35 | 0.65 | 0.919 | 0.28 | 0.604 | 0.71 | 0.95 | 0.335
Cc1c2c(nn1C)CSCc1cc(n(C)n1)CSc1cc(c3ccccc3c1)OCCCc1c(C(=O)O)n(C)c3c-2c(Cl)ccc13 [AZD5991] + CN(C)CCCOc1ccc(-c2ccc3ncc4c(c3c2)n(C2CCOCC2)c(=O)n4C)cn1 [AZD0156] (first compound max 1 µM, 7x7, partner max 1 µM) | 1 | 0.225 | 0.118 | 0.325 | 0.21 | 0.414 | 1 | 0.34 | 0.502 | 0.486 | 0.232 | 0.276 | 0.239 | 0.263 | 0.876 | 0.173 | 0.481 | 0.307 | 0.476 | 0.256
COc1cccc(OCCCN)c1-c1cc(Nc2cnc(C#N)cn2)n[nH]1 [Prexasertib] + CN(C)CCCOc1ccc(-c2ccc3ncc4c(c3c2)n(C2CCOCC2)c(=O)n4C)cn1 [AZD0156] (first compound max 1 µM, 7x7, partner max 1 µM) | 0.979 | 0.531 | 0.385 | 0.737 | 0.505 | 0.37 | 0.642 | 0.96 | 0.977 | 0.902 | 0.813 | 0.908 | 0.446 | 0.863 | 0.975 | 0.516 | 0.65 | 0.745 | 0.946 | 0.517
Cc1cc2ncnn2cc1Nc1ncc2c(n1)n(C1CCOCC1)c(=O)n2C [AZD7648] + C=CCn1c(=O)c2cnc(Nc3ccc(N4CCN(C)CC4)cc3)nc2n1-c1cccc(C(C)(C)O)n1 [AZD1775] (first compound max 10 µM, partner max 1 µM) | 0.979 | 0.427 | 0.214 | 0.7 | 0.615 | 0.55 | 0.753 | 0.905 | 0.892 | 0.424 | 0.375 | 0.748 | 0.425 | 0.755 | 0.742 | 0.295 | 0.431 | 0.659 | 0.864 | 0.521
Cc1cc2ncnn2cc1Nc1ncc2c(n1)n(C1CCOCC1)c(=O)n2C [AZD7648] + CN(C)CCCOc1ccc(-c2ccc3ncc4c(c3c2)n(C2CCOCC2)c(=O)n4C)cn1 [AZD0156] (first compound max 10 µM, 7x7, partner max 1 µM) | 0.208 | 0.285 | 0.129 | 0.414 | 0.228 | 0.387 | 0.621 | 0.404 | 0.359 | 0.21 | 0.234 | 0.37 | 0.239 | 0.353 | 0.317 | 0.19 | 0.147 | 0.448 | 0.274 | 0.342
